The values that follow come from ChEMBL document CHEMBL2169865, “Selective class I phosphoinositide 3-kinase inhibitors: optimization of a series of pyridyltriazines leading to the identification of a clinical candidate, AMG 511” (J Med Chem, 2012).

Data set [1] can be described thus: in vitro. The following applies: rat, liver microsomes.
Data set [2] can be described thus: in vitro. Conditions: human, liver microsomes. (Liver microsomes are a subcellular fraction often used to study metabolism.)
The nature of data set [3]: in vivo. Conditions: Sprague-Dawley, rat, iv, 1 mg/kg; call rule not given here.
Data set [4] is described as follows: in vivo. Conditions: Sprague-Dawley, rat, iv, 1 mg/kg. This is another data set of the same source.
Data set [5] can be described thus: in vivo. The following applies: Sprague-Dawley, rat, iv, 1 mg/kg. The source holds these as a separate data set.
Data set [6] can be described thus: in vivo. Conditions: Sprague-Dawley, rat, plasma, po, 2 mg/kg.
Data set [7] in a line: in vivo. Conditions: Sprague-Dawley, rat, po, 2 mg/kg.
Data set [8] relates to Hepatocyte. Conditions: rat, hepatocytes, 4 h, 3 µM.
The test system of data set [9] is Hepatocyte. The following applies: rat, hepatocytes, 4 h, 3 µM. The source holds these as a separate data set.

SMILES strings stand for the structures.

Take `COc1ncc(Nc2ncc(CN3CCN(S(C)(=O)=O)C[C@H]3C)cc2-c2nc(C)nc(N)n2)cc1F`: the microsomal CLint at 0.5 h, 1 µM in the data set “in vitro [1]” came to 120 µL/min/mg; in “in vitro [2]” it was 29 µL/min/mg.

As to `COc1ncc(Nc2ncc(CN3CCN(S(C)(=O)=O)C[C@@H]3C)cc2-c2nc(C)nc(N)n2)cc1F`, the mean residence time (MRT) in the data set “in vivo [3]” amounted to 3.2 h. For the same molecule, the Vd in “in vivo [4]” is 3.2 L/kg. The same molecule showed a clearance in the data set “in vivo [5]” of 16.7 mL/min/kg. The molecule further had an AUC in the data set “in vivo [6]” of 2.3 µM·h. For the same molecule, the bioavailability in the data set “in vivo [7]” turned out to be 60%. The figures for the microsomal CLint at 0.5 h, 1 µM in “in vitro [1]” and in the data set “in vitro [2]” were 54 µL/min/mg and 41 µL/min/mg, respectively.

Take `COc1ncc(Nc2ncc([C@@H](N3CCN(S(C)(=O)=O)CC3)C(F)(F)F)cc2-c2nc(C)nc(N)n2)cc1F`: the results for the intrinsic metabolic clearance (microsomal CLint) at 0.5 h, 1 µM in the data set “in vitro [1]” and in the data set “in vitro [2]” were 17 µL/min/mg and 23 µL/min/mg, respectively.

Turning to `COc1ncc(Nc2ncc([C@H](N3CCN(S(C)(=O)=O)CC3)C(F)(F)F)cc2-c2nc(C)nc(N)n2)cc1F`, the microsomal CLint at 0.5 h, 1 µM stood at 22 µL/min/mg in the data set “in vitro [1]” and 25 µL/min/mg in “in vitro [2]”.

On to `COc1ncc(Nc2ncc([C@@H](C)N3CCN(S(C)(=O)=O)C[C@H]3C)cc2-c2nc(C)nc(N)n2)cc1F`, for which the results for the microsomal CLint at 0.5 h, 1 µM in the data set “in vitro [1]” and in “in vitro [2]” were 113 µL/min/mg and 64 µL/min/mg, respectively.

As to `COc1ncc(Nc2ncc([C@H](C)N3CCN(S(C)(=O)=O)C[C@H]3C)cc2-c2nc(C)nc(N)n2)cc1F`, the intrinsic clearance (microsomal CLint) at 0.5 h, 1 µM came to 174 µL/min/mg in “in vitro [1]” and 54 µL/min/mg in the data set “in vitro [2]”.

Regarding `COc1ncc(Nc2ncc([C@@H](C)N3CCN(S(C)(=O)=O)C[C@@H]3C)cc2-c2nc(C)nc(N)n2)cc1F`, in “in vivo [3]”, the mean residence time (MRT) amounted to 3.1 h. This molecule also registered a Vd in the data set “in vivo [4]” of 4 L/kg. In addition, the clearance in “in vivo [5]” was 21.7 mL/min/kg. The AUC in the data set “in vivo [6]” was found to be 1.4 µM·h. Besides, the bioavailability in “in vivo [7]” was determined as 49%. The microsomal CLint at 0.5 h, 1 µM in the data set “in vitro [1]” was 69 µL/min/mg; in “in vitro [2]”, 67 µL/min/mg.

As for `COc1ncc(Nc2ncc([C@H](C)N3CCN(S(C)(=O)=O)C[C@@H]3C)cc2-c2nc(C)nc(N)n2)cc1F`, the results for the microsomal CLint at 0.5 h, 1 µM in “in vitro [1]” and in “in vitro [2]” were 128 µL/min/mg and 80 µL/min/mg, respectively.

Turning to `COc1ncc(Nc2ncc(C(C)(C)N3CCN(S(C)(=O)=O)CC3)cc2-c2nc(C)nc(N)n2)cc1F`, in “in vivo [3]”, the MRT stood at 4.9 h. Also, the Vd in “in vivo [4]” was 3.5 L/kg. In addition, the clearance in the data set “in vivo [5]” is 11.7 mL/min/kg. In addition, the area under the curve (AUC) in the data set “in vivo [6]” stood at 1.3 µM·h. In the data set “in vivo [7]”, this molecule yielded a bioavailability of 24%. Besides, the results for the microsomal CLint at 0.5 h, 1 µM in “in vitro [1]” and in “in vitro [2]” were 58 µL/min/mg and 81 µL/min/mg, respectively.

`Cc1nc(N)nc(-c2cc(CN3CCN(S(C)(=O)=O)CC3)cnc2Nc2ccc(=O)[nH]c2)n1`: the intrinsic metabolic clearance (microsomal CLint) at 0.5 h, 1 µM in “in vitro [1]” was below 14 µL/min/mg.

Regarding `Cc1nc(N)nc(-c2cc(CN3CCN(S(C)(=O)=O)CC3)cnc2Nc2ccc(Cl)nc2)n1`, the intrinsic metabolic clearance (microsomal CLint) at 0.5 h, 1 µM in “in vitro [1]” was 24 µL/min/mg; in the data set “in vitro [2]”, below 14 µL/min/mg.

`Cc1ccc(Nc2ncc(CN3CCN(S(C)(=O)=O)CC3)cc2-c2nc(C)nc(N)n2)cn1`: the results for the microsomal CLint at 0.5 h, 1 µM in “in vitro [1]” and in “in vitro [2]” were 22 µL/min/mg and below 14 µL/min/mg, respectively.

For the molecule `Cc1nc(N)nc(-c2cc(CN3CCN(S(C)(=O)=O)CC3)cnc2Nc2ccc(C(F)(F)F)nc2)n1`, the microsomal CLint at 0.5 h, 1 µM in the data set “in vitro [1]” is 22 µL/min/mg; in “in vitro [2]”, below 14 µL/min/mg.

As to `COc1ncc(Nc2ncc(CN3CCN(S(C)(=O)=O)CC3)cc2-c2nc(C)nc(N)n2)cn1`, the intrinsic clearance (microsomal CLint) at 0.5 h, 1 µM in the data set “in vitro [1]” and in “in vitro [2]” was 14 µL/min/mg in each case.

In the case of `COc1ncc(Nc2ncc(CN3CCN(S(C)(=O)=O)CC3)cc2-c2nc(C)nc(N)n2)cc1F`, in the data set “in vivo [3]”, the MRT is 1.7 h. In addition, the Vd in the data set “in vivo [4]” was found to be 3.3 L/kg. In the data set “in vivo [5]”, this molecule had a clearance of 33.3 mL/min/kg. In addition, the results for the Drug metabolism entry in the data set with Hepatocyte [8] and in the data set on Hepatocyte [9] were “Not Active” and “Active”, respectively. The same molecule returned an exposure (AUC) in “in vivo [6]” of 0.95 µM·h. The bioavailability in the data set “in vivo [7]” worked out at 45%. For the same molecule, the intrinsic clearance (microsomal CLint) at 0.5 h, 1 µM in “in vitro [1]” was 30 µL/min/mg; in “in vitro [2]”, below 14 µL/min/mg.

Consider `Cc1nc(N)nc(-c2cc(CN3CCN(S(C)(=O)=O)CC3)cnc2Nc2cncc(F)c2)n1`, for which the microsomal CLint at 0.5 h, 1 µM in “in vitro [1]” is 30 µL/min/mg; in the data set “in vitro [2]”, below 14 µL/min/mg.

With `COc1cncc(Nc2ncc(CN3CCN(S(C)(=O)=O)CC3)cc2-c2nc(C)nc(N)n2)c1`, the results for the intrinsic clearance (microsomal CLint) at 0.5 h, 1 µM in the data set “in vitro [1]” and in the data set “in vitro [2]” were 29 µL/min/mg and 14 µL/min/mg, respectively.

By microsomal CLint is commonly meant a measure of how fast metabolising enzymes remove a compound, apart from limits set by blood flow. Read a high microsomal CLint as rapid turnover. One may read the MRT as a mean duration of stay, worked out from the concentration-time curve. One may read the Vd as the apparent volume that relates the amount in the body to the concentration in plasma or blood. The low end stands for little distribution into tissue, the high end for wide distribution into tissue. In general, clearance refers to the volume of plasma or blood freed of the substance per unit of time. The term AUC denotes concentration integrated over time. A lower AUC goes with low exposure. One may read the bioavailability as dose-corrected exposure relative to a reference, in per cent.
